Results on eleven compounds are retold here after article PMC5601625, “Defining a therapeutic window for kinase inhibitors in leukemia to avoid neutropenia” (Oncotarget, 2017).

“Also recorded” adds a separate entry of the source. Where two headings read alike, the source gives them in different places.

Common to all, as to experiment: Cell Titer Glo cell viability assay, 48 h
What all share (type): cell-based, human
Background: In ATP-based viability assays light output follows the ATP content of the culture.

For one test, the system named is HL-60. The conditions noted are these: 48 h; for anti-proliferative activity in HL-60 cells: dose-response, Cell Titer Glo; for IC50: mean of 2 independent experiments, 0 = less than 10 nM, cell line not given, read-out: IC50 of inhibitors on cell lines, m (mean). The protocol:
(§1) The activity of the kinase inhibitor collection against a panel of human leukemia cell lines was determined in cell viability assays run over 48 h using the Cell Titer Glo reagent.
(§2) Figure 1 Effects of kinase inhibition on the proliferation of leukemia cells A. Human leukemia cell lines were treated with duplicate serial dilutions of kinase inhibitors and the effect on cell viability was determined by Cell Titer Glo assay after 48 hours. […] HL-60 cells were treated with serial dilutions of mTor/PI3K B. and MEK C. inhibitors and the effect on cell viability was determined after 48 hours. Data shown is the mean ± SEM of 3 independent experiments.
(§3) Leukemia and lymphoma cell lines were grown in RPMI containing 10% FCS. […] Cell lines are routinely tested for mycoplasma and genotyped by short tandem repeating (STR) profiling to confirm identity.
(§4) Compounds were obtained from SynMedChem and dissolved at […] in DMSO. Serial 2-fold dilutions of each compound were prepared in DMSO using a liquid handling robot (Janus, Perkin Elmer). Each dilution (100nL) was transferred to duplicate tissue culture plates containing 50 μL of media containing 5 × 10^3 cells using a 384 well pin tool. Cells were incubated for 48 h and cell viability was determined using Cell Titer Glow reagents as described by the manufacturer (Promega). Data was acquired using a luminescent plate reader (Envision, Perkin Elmer) and analysed using Activity Base (IDBS, Guilford, UK) and visualised using Spotfire (TIBCO, Palo Alto, CA) as described previously. Each cell line was assayed in independent experiments on at least two occasions. […] Serial 2-fold dilutions of each compound were prepared in media containing 0.2% DMSO and 50 μl of each dilution was added to 10^4 cells in 50 μl of media. Cells were incubated for 48 h and cell viability was determined using Cell Titer Glow assay as described above.

In the next test the test system is MEG-01. To be noted: 48 h, mean of 2 independent experiments, 0 = less than 10 nM, cell line not given, read-out: IC50 of inhibitors on cell lines, m (mean). The protocol: as §1, §2, §3, §4
The next test concerns MOLT4. The conditions noted are these: 48 h, mean of 2 independent experiments, 0 = less than 10 nM, cell line not given, read-out: IC50 of inhibitors on cell lines, m (mean). The protocol: as §1, §2, §3, §4
Another test has as its system KU-812. The conditions noted are these: 48 h, mean of 2 independent experiments, 0 = less than 10 nM, cell line not given, read-out: IC50 of inhibitors on cell lines, m (mean). As to the method:
as §1, §2, §3, §4

A further test has as its system EOL-1. To be noted: 48 h; mean of 2 independent experiments; 0 = less than 10 nM, cell line not given; read-out: IC50 of inhibitors on cell lines, m (mean). The protocol:
as §1, §2, §3, §4

In a further test the test system is JURKAT. The conditions noted are these: 48 h, mean of 2 independent experiments, 0 = less than 10 nM, cell line not given, read-out: IC50 of inhibitors on cell lines, m (mean). As to the method: as §1, §2, §3, §4
In the next test the test system is HEL.92.1.7. To be noted: 48 h, mean of 2 independent experiments, 0 = less than 10 nM, cell line not given, read-out: IC50 of inhibitors on cell lines, m (mean). As to the method:
as §1, §2, §3, §4

Another test relates to K562. To be noted: 48 h, mean of 2 independent experiments, 0 = less than 10 nM, cell line not given, read-out: IC50 of inhibitors on cell lines, m (mean). The protocol:
as §1, §2, §3, §4

The next test has as its system U937. The conditions noted are these: 48 h, mean of 2 independent experiments, 0 = less than 10 nM, cell line not given, read-out: IC50 of inhibitors on cell lines, m (mean). As to the method: as §1, §2, §3, §4
The next test deals with OCI-AML3. To be noted: 48 h, mean of 2 independent experiments, 0 = less than 10 nM, cell line not given, read-out: IC50 of inhibitors on cell lines, m (mean). The protocol:
as §1, §2, §3, §4

The test system of a further test is MV4;11. The conditions noted are these: 48 h, mean of 2 independent experiments, 0 = less than 10 nM, cell line not given, read-out: IC50 of inhibitors on cell lines, m (mean). As to the method: as §1, §2, §3, §4
The subject of a further test is THP-1. The conditions noted are these: 48 h, mean of 2 independent experiments, 0 = less than 10 nM, cell line not given, read-out: IC50 of inhibitors on cell lines, m (mean). As to the method: as §1, §2, §3, §4

In the case of `O=C(NOCC1CC1)c1ccc(F)c(F)c1Nc1ccc(I)cc1Cl` [CI-1040], the “anti-proliferative activity in HL-60 cells” value (“anti-proliferative activity” below) in the test with HL-60 is on record as “potent activity selectively against the HL-60 cell line; also recorded: selective activity”.

Turning to `CS(=O)(=O)N1CCN(Cc2cc3nc(-c4cccc5[nH]ncc45)nc(N4CCOCC4)c3s2)CC1` [GDC-0941], the “anti-proliferative activity” value in the test with HL-60 is given as “significant anti-proliferative activity”.

As to `CC(=O)Nc1cccc(-n2c(=O)n(C3CC3)c(=O)c3c(Nc4ccc(I)cc4F)n(C)c(=O)c(C)c32)c1` [GSK-1120212], the “anti-proliferative activity” value with HL-60 is “selective activity”.

Regarding `O=C(NOC[C@H](O)CO)c1ccc(F)c(F)c1Nc1ccc(I)cc1F` [PD0325901], the “anti-proliferative activity” value in the test on HL-60 is given as “potent activity selectively against the HL-60 cell line; also recorded: selective activity”.

One may read the IC50 as the midpoint of a concentration-inhibition curve. Take `CN(c1ccccc1CNc1nc(Nc2ccc3c(c2)CC(=O)N3)ncc1C(F)(F)F)S(C)(=O)=O` [PF431396]: the IC50 in the test with MEG-01 worked out at 6.32 µM; in the test on MOLT4, 6.42 µM; in the test on KU-812, 5.24 µM; in the test on EOL-1 it was 1.52 µM; in the test with JURKAT it was 3.61 µM; in the test with HEL.92.1.7, 4.07 µM. Moreover, the IC50 in the test on K562 was 7.1 µM; with U937, 1.23 µM; in the test on OCI-AML3 it was 2.96 µM; in the test on MV4;11, 0.16 µM; in the test with HL-60 it was 1.64 µM; in the test on THP-1, 3.66 µM.

On to `COc1ccc(-c2cc3c(C)nc(N)nc3n([C@H]3CC[C@H](OCCO)CC3)c2=O)cn1` [PF-04691502], for which, in the test on HL-60, the “anti-proliferative activity” value was “significant anti-proliferative activity”.

As to `CC(=O)Nc1ccc([C@H](C)C(=O)Nc2ncc(C(C)C)s2)cc1` [PHA690509], the IC50 was 5.39 µM in the test on MEG-01; 4.68 µM in the test on MOLT4; 3.93 µM in the test on KU-812; 5.31 µM in the test with EOL-1; 3.21 µM with JURKAT; 2.88 µM in the test with HEL.92.1.7. The IC50 in the test with K562 was 5.98 µM; with U937, 1.05 µM; in the test on OCI-AML3 it was 6.23 µM; in the test on MV4;11 it was 5.89 µM; with HL-60, 2.35 µM; in the test with THP-1, 5.98 µM.

For `COc1ccc2c(c1OC)N=C(NC(=O)c1cccnc1)N1CCN=C21` [PIK-90], the IC50 in the test on MEG-01 is over 10 µM; in the test with MOLT4, 3.92 µM; in the test on KU-812, over 10 µM; in the test with EOL-1, 5.09 µM; with JURKAT it was 9.47 µM; in the test on HEL.92.1.7, over 10 µM. The IC50 with K562 is over 10 µM; in the test with U937, 2.32 µM; with OCI-AML3, 0.82 µM; with MV4;11, 6.41 µM; with HL-60 it was 2.24 µM; in the test on THP-1, 5.41 µM.

Turning to `CN(C)C1CCN(C(=O)c2ccc(NC(=O)Nc3ccc(-c4nc(N5CCOCC5)nc(N5CCOCC5)n4)cc3)cc2)CC1` [PKI-587], the “anti-proliferative activity” value in the test on HL-60 is on record as “significant anti-proliferative activity”.

Consider `CNC(=O)c1cc(Oc2ccc(NC(=O)Nc3ccc(Cl)c(C(F)(F)F)c3)cc2)ccn1` [Sorafenib], for which the IC50 with MEG-01 (Homo sapiens) is 6.28 µM; with MOLT4 (Homo sapiens, MOLT-4) it was over 10 µM; with KU-812 (Homo sapiens, KU812), 3.79 µM; with JURKAT (Homo sapiens), over 10 µM; in the test on HEL.92.1.7 (Homo sapiens), over 10 µM; in the test with K562 (Homo sapiens) it was 9.94 µM. The IC50 in the test on U937 (Homo sapiens, U-937) is 5.33 µM; with OCI-AML3 (Homo sapiens, OCI-AML-3), 5.46 µM; in the test on MV4;11 (Homo sapiens), 0.01 µM; in the test with HL-60 (Homo sapiens) it was 5.73 µM; in the test with THP-1 (Homo sapiens) it was over 10 µM.

Take `COC(=O)c1ccc2c(c1)NC(=O)/C2=C(\Nc1ccc(N(C)C(=O)CN2CCN(C)CC2)cc1)c1ccccc1` [Vargatef]: the IC50 in the test on MEG-01 (Homo sapiens) turned out to be 0.46 µM; with MOLT4 (Homo sapiens, MOLT-4), 3.69 µM; in the test on KU-812 (Homo sapiens, KU812), 0.24 µM; in the test with JURKAT (Homo sapiens), 2.7 µM; in the test on HEL.92.1.7 (Homo sapiens), 2.97 µM; in the test with K562 (Homo sapiens), 0.59 µM. The IC50 in the test with U937 (Homo sapiens, U-937) was found to be 6.31 µM; in the test on OCI-AML3 (Homo sapiens, OCI-AML-3), 3.44 µM; with MV4;11 (Homo sapiens), 0.04 µM; in the test with HL-60 (Homo sapiens) it was 3.55 µM; with THP-1 (Homo sapiens), 5.85 µM.
